Values quoted from earlier work in patent publication US8158648B2, “Heteroaryl 11-beta hydroxysteroid dehydrogenase type I inhibitors” (priority 2005, dated 2012).

Test system: hepatic glucose production
Details: mildly overweight individuals with type 2 diabetes, seven days, versus placebo

In the case of `CC1(C)[C@@H](OC(=O)CCC(=O)O)CC[C@]2(C)[C@H]3C(=O)C=C4[C@@H]5C[C@@](C)(C(=O)O)CC[C@]5(C)CC[C@@]4(C)[C@]3(C)CC[C@@H]12` [carbenoxolone], the hepatic glucose production is given as “decrease in hepatic glucose production”.
